Patent US20090074666A1 (priority 2005, published 2009)
Where two headings read alike, the source gives them in different places.

Key:
[1] = system: serum antibodies of test subjects (anti-human IgG detection); experiment: ELISA of serum antibodies on maleimide-activated plates; assay type: binding; details: Cys-conjugate on maleimide plate
Method: Peptides containing cysteine were bound through the cysteine sulfhydryl group to maleimide activated plates (Reacti-Bind™ Maleimide activated plates, Pierce).
One hundred microliters of the peptide solution (0.5 nmol of peptide) was added to each well and allowed to react overnight at +4° C.
The unreacted maleimide groups were blocked with 2-mercaptoethanol: 150 μl of 1 mM 2-mercaptoethanol in 10 mM sodium phosphate/0.15 M NaCl/2 mM EDTA, pH 7.2 was added to each well and allowed to react for 1 hour at RT.
The serum obtained from person nr. […] Control wells contained no peptide but both 2-mercaptoethanol and BSA blockings were employed. All incubations were performed in duplicates.

[2] = system: serum antibodies of test subjects (anti-human IgG detection); details: N-terminal biotin conjugate on streptavidin plate
Method: Biotinylated peptides were bound to streptavidin-coated plates (Pierce).
The peptides sequences were as follows: • Biotin-aminohexanoyl-PWVRGV (custom product, CSS, Edinburgh, Scotland) • Biotin-aminohexanoyl-SYACKR (custom product, CSS, Edinburgh, Scotland) • Biotin-aminohexanoyl-SKAYSNC (custom product, CSS, Edinburgh, Scotland)
Prior to peptide immobilization, plates were blocked with 150 μl of 0.5% BSA in 10 mM sodium phosphate/0.15 M NaCl/0.05% Tween-20, pH 7.2, for 1.5 h at RT. The plate was then washed three times with 10 mM sodium phosphate/0.15 M NaCl/0.05% Tween-20, pH 7.2.
Peptides were dissolved in 10 mM sodium phosphate/0.15 M NaCl, pH 7.2, to a concentration of 0.5 nmol/ml. One hundred microliters of the peptide solutions (50 pmol of the peptide) were added to the wells and allowed to react overnight at +4° C. The plates were then washed four times with 10 mM sodium phosphate/0.15 M NaCl/0.05% Tween-20/0.2% BSA, pH 7.2 (washing buffer).
Serum was obtained from six healthy individuals (29-44 years of age), and dilutions 1:10, 1:100 and 1:1000 were prepared from all but one serum sample in the washing buffer. The serum obtained from person nr. 5 was instead diluted 1:25, 1:250 and 1:2500 in the washing buffer. One hundred microliters of each serum sample was added to the wells and incubated for 60 mins at RT. […] All incubations were performed in duplicates.
After serum incubation the plate was washed with the washing buffer 8 times with at least 5 min incubation period between change of the washing liquid.
The bound serum antibodies were quantitated by adding anti-human IgG (rabbit)—HRP conjugate (Sigma) in 1:30000 dilution to each well. After one hour incubation at RT, the plate was washed five times with the washing buffer. One hundred microliters of TMB+ color reagent (Dako Cytomation) was then added. The absorbance was read at 650 nm after 15 mins. Immediately after this measurement 100 μl of 1 M sulphuric acid was added and the absorbance read at 450 nm.

A/Taiwan/1/86 H1N1 = assay type: binding, human influenza virus A; design: key: “+” = binding; “−” = no binding; “(+)” = trace binding
A/Beijing/262/95 H1N1 = assay type: binding, human influenza virus A; design: key: “+” = binding; “−” = no binding; “(+)” = trace binding
A/New Caledonia/20/99 = assay type: binding, human influenza virus A; design: key: “+” = binding; “−” = no binding; “(+)” = trace binding
A/Kiev/301/94 H3N2 = assay type: binding, human influenza virus A; design: key: “+” = binding; “−” = no binding; “(+)” = trace binding
A/Shangdong/9/93 H3N2 = assay type: binding, human influenza virus A; design: key: “+” = binding; “−” = no binding; “(+)” = trace binding
A/PR/8/34 H1N1 = assay type: binding, human influenza virus A; design: key: “+” = binding; “−” = no binding; “(+)” = trace binding
A/X31, A/Aichi/3/75 H3N2 = assay type: binding, human influenza virus A; design: key: “+” = binding; “−” = no binding; “(+)” = trace binding
A/2/Japan/305/57 H2N2 = assay type: binding, human influenza virus A; design: key: “+” = binding; “−” = no binding; “(+)” = trace binding
[3] = system: human influenza virus A strains; assay type: binding

Biotin-aminohexanoyl-SKAYSNC [Peptide 1]
Approximate immune reactions of sera against synthetic peptides ([1]; Serum 1): weakly or non-reactive
Approximate immune reactions of sera against synthetic peptides ([1]; Serum 2): reacted
Approximate immune reactions of sera against synthetic peptides ([1]; Serum 3): reacted
Approximate immune reactions of sera against synthetic peptides ([1]; Serum 4): reacted
Approximate immune reactions of sera against synthetic peptides ([1]; Serum 5): weakly or non-reactive
Approximate immune reactions of sera against synthetic peptides ([1]; Serum 6): strongest
Approximate immune reactions of sera against synthetic peptides ([2]; Serum 1, listed as Biotin-aminohexanoic-SKAYSNC): weakly or non-reactive
Approximate immune reactions of sera against synthetic peptides ([2]; Serum 3, listed as Biotin-aminohexanoic-SKAYSNC): strongest immune response
Approximate immune reactions of sera against synthetic peptides ([2]; Serum 4, listed as Biotin-aminohexanoic-SKAYSNC): strongest immune response
Approximate immune reactions of sera against synthetic peptides ([2]; Serum 5, listed as Biotin-aminohexanoic-SKAYSNC): weakly or non-reactive
Approximate immune reactions of sera against synthetic peptides ([2]; Serum 6, listed as Biotin-aminohexanoic-SKAYSNC): weakly or non-reactive

Biotin-aminohexanoyl-SYACKR [Peptide 2]
Approximate immune reactions of sera against synthetic peptides ([1]; Serum 5): weaker
Approximate immune reactions of sera against synthetic peptides ([1]; Serum 6): strongest response
Approximate immune reactions of sera against synthetic peptides ([2]; Serum 1, listed as Biotin-aminohexanoic-SYACKR): weakest reaction
Approximate immune reactions of sera against synthetic peptides ([2]; Serum 2, listed as Biotin-aminohexanoic-SYACKR): strongest immune response
Approximate immune reactions of sera against synthetic peptides ([2]; Serum 5, listed as Biotin-aminohexanoic-SYACKR): strongest immune response

Globoside
Binding of influenza virus strain to glycolipids (A/Taiwan/1/86 H1N1): −
Binding of influenza virus strain to glycolipids (A/Beijing/262/95 H1N1): −
Binding of influenza virus strain to glycolipids (A/New Caledonia/20/99): −
Binding of influenza virus strain to glycolipids (A/Kiev/301/94 H3N2): −
Binding of influenza virus strain to glycolipids (A/Shangdong/9/93 H3N2): −
Binding of influenza virus strain to glycolipids (A/PR/8/34 H1N1): −
Binding of influenza virus strain to glycolipids (A/X31, A/Aichi/3/75 H3N2): −
Binding of influenza virus strain to glycolipids (A/2/Japan/305/57 H2N2): −

Neu5Acα2-3Galβ1-4GlcNAcβ1-3(Neu5Acα2-3Galβ1-4GlcNAcβ1-6)Galβ1-4Glc [Oligosaccharide 9]
activity on solid phase, in words [3]: active especially when presented in polyvalent form on a solid phase
